Test results as given in BigSolDB 2.1.

Structure (SMILES): CC(C)(C)c1cc(CCC(=O)OCC(COC(=O)CCc2cc(C(C)(C)C)c(O)c(C(C)(C)C)c2)(COC(=O)CCc2cc(C(C)(C)C)c(O)c(C(C)(C)C)c2)COC(=O)CCc2cc(C(C)(C)C)c(O)c(C(C)(C)C)c2)cc(C(C)(C)C)c1O
- solubility (mole fraction) (in ethanol, 293.15 K): 0.000302
- solubility (mole fraction) (in ethanol, 298.15 K): 0.000445
- solubility (mole fraction) (in ethanol, 303.15 K): 0.000685
- solubility (mole fraction) (in ethanol, 308.15 K): 0.00105
- solubility (mole fraction) (in ethanol, 313.15 K): 0.0016
- solubility (mole fraction) (in ethanol, 318.15 K): 0.00238
- solubility (mole fraction) (in ethanol, 323.15 K): 0.00351
- solubility (mole fraction) (in ethanol, 328.15 K): 0.0051
- solubility (mole fraction) (in ethanol, 333.15 K): 0.0074
- solubility (mole fraction) (in isopropanol, 293.15 K): 0.000148
- solubility (mole fraction) (in isopropanol, 298.15 K): 0.000239
- solubility (mole fraction) (in isopropanol, 303.15 K): 0.000406
- solubility (mole fraction) (in isopropanol, 308.15 K): 0.000631
- solubility (mole fraction) (in isopropanol, 313.15 K): 0.000998
- solubility (mole fraction) (in isopropanol, 318.15 K): 0.00158
- solubility (mole fraction) (in isopropanol, 323.15 K): 0.00252
- solubility (mole fraction) (in isopropanol, 328.15 K): 0.00411
- solubility (mole fraction) (in isopropanol, 333.15 K): 0.00638
- solubility (mole fraction) (in methanol, 293.15 K): 0.000221
- solubility (mole fraction) (in methanol, 298.15 K): 0.000332
- solubility (mole fraction) (in methanol, 303.15 K): 0.000544
- solubility (mole fraction) (in methanol, 308.15 K): 0.000812
- solubility (mole fraction) (in methanol, 313.15 K): 0.00126
- solubility (mole fraction) (in methanol, 318.15 K): 0.00203
- solubility (mole fraction) (in methanol, 323.15 K): 0.00287
- solubility (mole fraction) (in methanol, 328.15 K): 0.00429
- solubility (mole fraction) (in methanol, 333.15 K): 0.00726
